By microsomal CLint is commonly meant the rate of metabolic loss divided by the concentration.

The results in this text go back to patent US9434719B2, “3-pyrimidin-4-yl-oxazolidin-2-ones as inhibitors of mutant IDH” (NOVARTIS AG, priority 2013, dated 2016).

Holding throughout (type): in vitro ADME
A short description of data set [1]: Metabolic stability in liver microsomes, Method I, rat. As to conditions: 1 μM test compound; for microsomal CLint at 1 μM: male, Sprague-Dawley, liver microsomes; for microsomal CLint at 1 μM / microsomal CLint: rat; for microsomal CLint: microsomes.
Experimental: (§1) Determination of Metabolic Stability in Liver Microsomes—Method I
(§2) The in vitro metabolic stability assay was performed in a 96-well glass plate with shaking incubation at 37° C. A 10 mM DMSO stock solution of the test compound was sequentially diluted 1:1000 to yield a final reaction concentration of 1 μM in 50 mM KPi. […] 30 μL of the 10 μM solution containing the test compound was added to 120 μL of microsomal protein for 150 μL enzyme-compound mixture. The reaction was initiated by adding 150 μL of cofactor solution (2 mM NADPH, 4 mM MgCl in 50 mM KPi) to the enzyme-compound mixture, and the final reaction concentrations are listed in the table below.
(§3) At 0, 5, 10 and 30 minute time points in the reaction, reaction aliquots (50 μL) were removed and the reactions were terminated by the addition of acetonitrile (150 μL) containing a mass spectrometry internal standard (1 μM glyburide). The samples were centrifuged and the supernatants analyzed by LC-MS/MS for quantization of remaining compound.
(§4) Analysis of the samples was performed on a high performance liquid chromatography-tandem mass spectrometry (LC/MS) system consisting of a Thermo TSQ Quantum Ultra mass spectrometer, an H-ESI ion source, a CTC-HTS Pal autosampler, and an Agilent LC Pump.
(§5) Mobile phase A consisted of purified water containing 0.01% formic acid. Mobile phase B consisted of acetonitrile containing 0.01% formic acid. The flow rate was 1 mL/min. The injection volume was 10 μL. Compounds were detected using the Thermo QuikQuan software which collects intensity data for all fragments related to the molecular weight of the test compound. After collection of the raw data, the software identifies and integrates the peak of the strongest intensity.
(§6) Each microsomal elimination rate, kmic, was based on a 4-point elimination curve tested in singlet. LC-MS/MS raw data for a reaction plate was returned as integrated analyte peak areas for the test compound and internal standard used in the quench solution for the reaction to enable use of analyte:internal standard peak area ratios (PARs) for all data comparisons. The reaction time point (e.g. 0, 5, 20 or 30 minutes) was plotted versus the natural logarithm of percent test compound remaining relative to 0 minutes (based on relative PAR).
Data set [2] can be described thus: Metabolic stability in liver microsomes, Method I, human. Conditions: 1 μM test compound; for microsomal CLint at 1 μM: pooled liver microsomes. In general terms: Liver microsomes are vesicles of endoplasmic reticulum, rich in cytochrome P450 enzymes.
Experimental: as §1, §2, §3, §4, §5, §6
Data set [3] is described as follows: Metabolic stability in liver microsomes, Method I, mouse. As to conditions: for microsomal CLint at 1 μM: male, CD-1, 1 μM test compound; for microsomal CLint: 1 μM test compound.
Experimental: as §1, §2, §3, §4, §5, §6
A short description of data set [4]: Metabolic stability in liver microsomes, Method II, rat. As to conditions: 1 μM test compound, NADPH + UDPGA; for microsomal CLint at 1 μM: male, Sprague-Dawley.
Experimental: Determination of Metabolic Stability in Liver Microsomes—Method II
The in vitro metabolic stability assay was performed in a 96-deep-well plate with incubation at 37° C. 10 mM DMSO stock solution of the test compound was diluted 1:20 in acetonitrile, followed by an additional 1:10 dilution in 100 mM potassium phosphate buffer (KPi) to yield a final reaction concentration of 1 μM. […] 290 μL of cofactor solution (1.7 mM NADPH, 1.7 mM UDPGA, 3.4 mM MgCl in 100 mM KPi) was added to 200 μL of microsomal protein for a final volume of 490 μL. The reaction was initiated by adding 10 μL of the 50 μM test solution to 490 μL of microsomal protein for a final volume 500 μL enzyme-compound mixture.
At 0, 5, 15 and 30 minute time points in the reaction, reaction aliquots (75 μL) were removed and the reactions were terminated by the addition of 50:50 acetonitrile/methanol solution (75 μL) containing a mass spectrometry internal standard (0.5 μM glyburide). The samples were centrifuged at 4000 RPM for 10 minutes. Supernatants (15 μL aliquots) were transferred to a new plate where each well contains 90 μL of deionized water. The supernatants solution were analyzed by UPLC/MS/MS for quantitation of parent remaining compound under multiple reactions monitoring mode (MRM) in positive mode.
Analysis of the samples was performed on an ultra-performance liquid chromatography-tandem mass spectrometry (UPLC/MS/MS) system consisting of an AB Sciex Qtrap 5500 mass spectrometer, AB Sciex Turbo V ion source, Waters Acquity Sample Organizer, Waters Acquity Column manager, Waters Acquity Sample manager, and a Waters Acquity Binary Solvent Manager. Chromatographic separation of analyte and internal standard was achieved using a reverse phase C-18 column (50×2.1 mm, 1.7 μm, Acquity UPLC BEH C-18) with the following UPLC mobile phases and elution gradient:
UPLC mobile phase A: 0.25% formic acid in 5% methanol; mobile phase B: 0.25% formic acid in 95% water.
The injection volume was 5 μL. Compounds were detected using Analyst 1.5.1 software which collects intensity data for all fragments related to the molecular weight of the test compound. After collection of the raw data, the software identifies and integrates the peak of the strongest intensity.
Each microsomal elimination rate, k, was based on a 4-point elimination curve tested in duplicates. LC-MS/MS raw data for a reaction plate was returned as integrated analyte peak areas for the test compound and internal standard used in the quench solution for the reaction to enable use of analyte:internal standard peak area ratios (PARs) for all data comparisons. The reaction time point (e.g. 0, 5, 15 and 30 minutes) was plotted versus the natural logarithm of percent test compound remaining relative to 0 minutes (based on relative PAR). The slope of this clearance plot, k, was used to calculate the in vitro half-life.
[formula] The intrinsic clearance value, CLint (expressed as μL/min/mg microsomal protein) calculation is shown below:
[formula] Where V=the incubation volume (mL) and M=the microsomal protein content in the incubation (mg)

Counter-ions that a name gives are not always drawn.

In data set [1], `Cc1ccc(-c2noc(C(C)Nc3ncc(F)c(N4C(=O)OC[C@@H]4[C@@H](C)O)n3)n2)cc1F` (single isomer, unassigned) [Example 122] had a microsomal CLint at 1 μM of 69.4 µL/min/mg.

Take `CC(Nc1nccc(N2C(=O)OC[C@@H]2[C@@H](C)O)n1)c1nc(-c2ccc3c(c2)OC(F)(F)O3)no1` (single isomer, unassigned) [Example 169]: in data set [1], the “Rat microsomal stability CLint” value was 60.93 µL/min/mg and the microsomal CLint at 1 μM worked out at 68.8 µL/min/mg.

In data set [1], `CC(Nc1nccc(N2C(=O)OC[C@@H]2[C@@H](C)O)n1)c1nc(-c2ccc(C(F)(F)F)cc2)no1` (single isomer, unassigned) [Example 174] returned a microsomal CLint at 1 μM of 48.5 µL/min/mg.

Consider `CC(Nc1nccc(N2C(=O)OC[C@@H]2[C@@H](C)O)n1)c1nc(-c2ccc(C(F)(F)F)cc2)no1` (single isomer, unassigned) [Example 175], for which the “Rat microsomal stability CLint” value in data set [1] is 50.51 µL/min/mg. The results for the microsomal CLint at 1 μM in data set [2] and in data set [3] were 39.8 µL/min/mg and 56.3 µL/min/mg, respectively.

In turn, `CC(Nc1nccc(N2C(=O)OC[C@@H]2[C@@H](C)O)n1)c1nc(-c2ccc(OC(F)(F)F)cc2)no1` (single isomer, unassigned) [Example 181] returned a microsomal CLint at 1 μM in data set [1] of 56.6 µL/min/mg.

Regarding `C[C@H](Nc1ncc(F)c(N2C(=O)OC[C@@H]2CF)n1)c1cn(-c2ccc(C(F)F)cc2)cn1` [434 as TFA salt], the microsomal CLint was 10.8 µL/min/mg in data set [4], 41 µL/min/mg in data set [1], less than 7.7 µL/min/mg in data set [2] and 10.7 µL/min/mg in data set [3].

Consider `C[C@H](Nc1nccc(N2C(=O)OC[C@@H]2[C@H](C)F)n1)c1cn(-c2ccc(C(F)F)cc2)cn1` [456 as TFA salt], for which the microsomal CLint in data set [1] was determined as 44.7 µL/min/mg; in data set [2] it was 16.8 µL/min/mg.

On to `C[C@H](Nc1nccc(N2C(=O)OC[C@@H]2CF)n1)c1cn(-c2ccc(Cl)c(F)c2)cn1` [473 as TFA salt], for which the microsomal CLint in data set [4] was 33.3 µL/min/mg; in data set [1], 72.5 µL/min/mg; in data set [2], less than 7.7 µL/min/mg; in data set [3], 17.7 µL/min/mg.

Regarding `C[C@H](Nc1nccc(N2C(=O)OC[C@@H]2CF)n1)c1cn(-c2ccc(C(F)F)c(F)c2)cn1` [475 as TFA salt], the microsomal CLint is 16.2 µL/min/mg in data set [4], 54 µL/min/mg in data set [1], less than 7.7 µL/min/mg in data set [2] and 15.7 µL/min/mg in data set [3].

Consider `C[C@H](Nc1nccc(N2C(=O)OC[C@@H]2[C@H](C)O)n1)c1ccc(CN2CCN(C)C(C)(C)C2)c(F)c1` [Example 48, (R)-3-(2-((S)-1-(3-fluoro-4-((3,3,4-trimethylpiperazin-1-yl)methyl)phenyl)ethylamino)pyrimidin-4-yl)-4-((S)-1-hydroxyethyl)oxazolidin-2-one], for which the microsomal CLint at 1 μM in data set [1] was determined as 49.1 µL/min/mg; in data set [2], 121 µL/min/mg; in data set [3] it was 173 µL/min/mg.

Take `C[C@H](Nc1nccc(N2C(=O)OC[C@@H]2[C@@H](C)O)n1)c1ccc(-c2ccnc(C(F)(F)F)c2)cn1` [Example 55, (R)-4-((R)-1-hydroxyethyl)-3-(2-(((S)-1-(2′-(trifluoromethyl)-[3,4′-bipyridin]-6-yl)ethyl)amino)pyrimidin-4-yl)oxazolidin-2-one]: the microsomal CLint at 1 μM in data set [1] worked out at 58.4 µL/min/mg; in data set [3] it was 63.1 µL/min/mg.

For `Cc1cc(-c2ccnc(C(F)(F)F)c2)cnc1[C@H](C)Nc1nccc(N2C(=O)OC[C@@H]2[C@@H](C)O)n1` [Example 61, (R)-4-((R)-1-hydroxyethyl)-3-(2-(((S)-1-(5-methyl-2′-(trifluoromethyl)-[3,4′-bipyridin]-6-yl)ethyl)amino)pyrimidin-4-yl)oxazolidin-2-one], the results for the microsomal CLint at 1 μM in data set [1], in data set [2] and in data set [3] were 34.6 µL/min/mg, 66.4 µL/min/mg and 67.7 µL/min/mg, respectively.

In the case of `C[C@H](Nc1nccc(N2C(=O)OC[C@@H]2[C@@H](C)N)n1)c1cnc(-c2ccc(Cl)cc2)s1` [Example 380, (S)-4-((R)-1-aminoethyl)-3-(2-(((S)-1-(2-(4-chlorophenyl)thiazol-5-yl)ethyl)amino)pyrimidin-4-yl)oxazolidin-2-one], the microsomal CLint at 1 μM in data set [4] is 30.2 µL/min/mg; in data set [1], 42.9 µL/min/mg; in data set [2], 31.1 µL/min/mg; in data set [3], 51 µL/min/mg.

For `C[C@H](Nc1nccc(N2C(=O)OC[C@@H]2[C@H](C)F)n1)c1cn(-c2ccc(F)cc2)cn1` [Example 401, (R)-4-((S)-1-fluoroethyl)-3-(2-(((S)-1-(1-(4-fluorophenyl)-1H-imidazol-4-yl)ethyl)amino)pyrimidin-4-yl)oxazolidin-2-one], the microsomal CLint at 1 μM in data set [4] was 92.4 µL/min/mg; in data set [1] it was 30.4 µL/min/mg; in data set [2], less than 7.7 µL/min/mg; in data set [3], 33.1 µL/min/mg.

On to `C[C@H](Nc1nccc(N2C(=O)OC[C@@H]2CF)n1)c1cn(-c2ccc(Cl)cc2)cn1` [Example 404, (R)-3-(2-(((S)-1-(1-(4-chlorophenyl)-1H-imidazol-4-yl)ethyl)amino)pyrimidin-4-yl)-4-(fluoromethyl)oxazolidin-2-one], for which the microsomal CLint at 1 μM was 75.4 µL/min/mg in data set [4], 44.6 µL/min/mg in data set [1], less than 7.7 µL/min/mg in data set [2] and 18.7 µL/min/mg in data set [3].

Turning to `C[C@H](Nc1nccc(N2C(=O)OC[C@@H]2[C@H](C)F)n1)c1ncc(-c2ccnc(C(F)(F)F)c2)cc1F` [Example 463, (R)-3-(2-(((S)-1-(5-fluoro-2′-(trifluoromethyl)-[3,4′-bipyridin]-6-yl)ethyl)amino)pyrimidin-4-yl)-4-((S)-1-fluoroethyl)oxazolidin-2-one], the microsomal CLint at 1 μM was 49.8 µL/min/mg in data set [4], 50.8 µL/min/mg in data set [1], 28.3 µL/min/mg in data set [2] and 35.5 µL/min/mg in data set [3].

On to `C[C@H](Nc1nccc(N2C(=O)OC[C@@H]2[C@H](C)F)n1)c1ccc(-c2ccnc(C(F)(F)F)c2)cn1` [Example 468, (R)-4-((S)-1-fluoroethyl)-3-(2-(((S)-1-(2′-(trifluoromethyl)-[3,4′-bipyridin]-6-yl)ethyl)amino)pyrimidin-4-yl)oxazolidin-2-one], for which the microsomal CLint at 1 μM in data set [1] was 30.5 µL/min/mg; in data set [2], 70.1 µL/min/mg; in data set [3], 28.9 µL/min/mg.

The compound `Cc1cc(-c2cnc([C@H](C)Nc3nccc(N4C(=O)OC[C@@H]4[C@H](C)F)n3)nc2)ccc1F` [Example 469, (R)-3-(2-(((S)-1-(5-(4-fluoro-3-methylphenyl)pyrimidin-2-yl)ethyl)amino)pyrimidin-4-yl)-4-((S)-1-fluoroethyl)oxazolidin-2-one] registered a microsomal CLint at 1 μM in data set [1] of 132 µL/min/mg.

For `Cc1cc([C@H](C)Nc2ncc(F)c(N3C(=O)OC[C@@H]3[C@H](C)F)n2)ncc1-c1ccnc(C(F)(F)F)c1` [Example 470, (R)-3-(5-fluoro-2-(((S)-1-(4-methyl-2′-(trifluoromethyl)-[3,4′-bipyridin]-6-yl)ethyl)amino)pyrimidin-4-yl)-4-((S)-1-fluoroethyl)oxazolidin-2-one], the microsomal CLint at 1 μM in data set [1] worked out at 52.8 µL/min/mg; in data set [2], 83.6 µL/min/mg; in data set [3] it was 47.3 µL/min/mg.

For `C[C@H](Nc1ncc(F)c(N2C(=O)OC[C@@H]2CF)n1)c1ncc(-c2ccc(Cl)cc2)o1` [Example 480, (R)-3-(2-(((S)-1-(5-(4-chlorophenyl)oxazol-2-yl)ethyl)amino)-5-fluoropyrimidin-4-yl)-4-(fluoromethyl)oxazolidin-2-one], the microsomal CLint at 1 μM amounted to 65.2 µL/min/mg in data set [1], 35.6 µL/min/mg in data set [2] and 51.5 µL/min/mg in data set [3].
